Data taken from US20220125765A1, “PHARMACEUTICAL COMBINATIONS COMPRISING MEBENDAZOLE AND A STRONG OR MODERATE CYP1A2 INHIBITOR” (ZEPHAPHARM LTD, priority 2019, published 2022).

How the values were obtained:
[1] = Stability in human cryopreserved hepatocytes without and with cimetidine or furafylline (Example 5); type: in vitro ADME; conditions: human, cryopreserved hepatocytes (suspension), substrate 1 μM, no inhibitor; read-out: t1/2
Experimental: (§1) The final incubation volume was 500 μL. Two control compounds were included with each species, alongside appropriate vehicle control.
(§2) The samples were analysed for mebendazole or ethoxycoumarin using LC-MS/MS.
(§3) The final incubation volume was 500 μL.
(§4) A positive control compound, ethoxycoumarin, for CYP1A2 was included. […] The samples were analysed for mebendazole or ethoxycoumarin using LC-MS/MS.

[2] = Stability in human cryopreserved hepatocytes without and with cimetidine or thiabendazole (Example 6); conditions: human, cryopreserved hepatocytes (suspension), substrate 1 μM, no inhibitor
[3] = tested on: human cryopreserved hepatocytes; experiment: Stability in human cryopreserved hepatocytes without and with cimetidine or furafylline (Example 5); type: in vitro ADME; conditions: human hepatocytes, largest effect over concentrations tested
Experimental: as §1, §2, §3, §4

[4] = Stability in human liver microsomes without and with cimetidine or furafylline (Example 4); type: in vitro ADME; conditions: human liver microsomes, largest effect over concentrations tested
Experimental: A minus cofactor control incubation was included for each compound tested where 0.1 M phosphate buffer pH 7.4 was added instead of NADPH (minus NADPH). […] The samples were analysed for mebendazole or phenacetin using LC-MS/MS.
A minus cofactor control incubation was included for each compound tested where 0.1 M phosphate buffer pH 7.4 was added instead of cofactor (minus NADPH). […] The samples were analysed for mebendazole or phenacetin using LC-MS/MS.

`O=c1ccc2ccc(O)cc2o1` [Umbelliferone] showed a half-life at 1 μM [1] of 7.95 min, a hepatocyte CLint at 1 µM ([2]; CLint) of 229 µL/min/1e6 cells and a half-life at 1 μM ([2]; t½) of 6.05 min.

With `Cc1nc2c([nH]1)c(=O)n(C)c(=O)n2Cc1ccco1` [Furafylline] the “decrease of mebendazole metabolism in presence of the inhibitor” value [3] was 9.1 fold, the “inhibition of intrinsic clearance of mebendazole” value [3] was 89% and the “inhibition of intrinsic clearance of mebendazole” value [4] was 99%.
